Source: US20220324862A1, “PYRIDOPYRIMIDINONE COMPOUNDS” (Acerand Therapeutics (USA) Limited, priority 2021, published 2022)

molecular target: T1, protein-protein interaction between SOS1 and KRAS-G12D (Homo sapiens, UniProt Q07889); experiment: HTRF Based Protein-Protein Interaction Assay; assay type: binding; conditions: HTRF; GST-SOS1 2.5 nM, KRAS-G12D 100 nM, GDP 10 uM; read-out: IC50 value, inhibition of SOS1/KRAS-G12D protein-protein interaction
T1 construct: The purified GST-SOS1 catalytic domain (residues 564-1049) was first diluted in assay buffer; made in house; host or cells: E. coli BL21 (DE3) for SOS1; E. coli BL21 carrying a BirA plasmid for KRAS-G12D
T1 sequence (Q07889 564-1049): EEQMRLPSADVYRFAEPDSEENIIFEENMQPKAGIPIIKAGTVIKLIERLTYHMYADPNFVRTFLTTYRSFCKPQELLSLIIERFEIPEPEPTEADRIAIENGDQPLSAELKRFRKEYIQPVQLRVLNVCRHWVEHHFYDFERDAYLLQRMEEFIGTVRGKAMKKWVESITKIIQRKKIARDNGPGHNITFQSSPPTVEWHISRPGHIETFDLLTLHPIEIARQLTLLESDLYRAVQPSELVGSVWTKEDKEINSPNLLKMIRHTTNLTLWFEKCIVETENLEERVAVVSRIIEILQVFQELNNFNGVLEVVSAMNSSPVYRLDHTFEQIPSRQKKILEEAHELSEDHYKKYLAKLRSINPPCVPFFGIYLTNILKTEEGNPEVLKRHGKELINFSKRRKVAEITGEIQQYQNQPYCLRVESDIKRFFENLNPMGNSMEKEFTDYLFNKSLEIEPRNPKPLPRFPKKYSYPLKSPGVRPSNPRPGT
Excerpt: A KRAS-G12D and SOS1 binding/interaction assay was designed to measure the interaction between KRAS-G12D and SOS1 proteins. Utilizing HTRF (Homogeneous Time-Resolved Fluorescence) technology, the assay enabled simple and rapid characterization of compound and protein interaction in a high throughput format. This assay was used to examine potency of the compounds in inhibiting the protein-protein interaction between SOS1 and KRAS-G12D. […] Low IC50 values are indicative of high potency of the SOS1 inhibitor compound to disrupt SOS1 and Kras-G12D interaction.
Protein Expression and Purification. The corresponding gene sequence to human SOS1 (residues 564-1049, UniProt ID: Q07889; SEQ ID NO: 2) was synthesized and fused in frame with GST expression vector. After the desired sequence was confirmed, plasmid containing the sequence was transformed into the E. coli strain BL21 (DE3). Bacteria were growing at 37° C. in LB media containing 50 μg/ml Kanamycin to give OD600 of 0.6-0.8. Then 0.2 mM IPTG was added to induce protein expression for 16 hours at 17° C. Bacteria were harvested by centrifugation and stored at −80° C. Bacteria pellets were resuspended in lysis buffer (25 mM Tris-HCl, 500 mM NaCl, 2 mM DTT, 2.3% sucrose, 0.3% dextran-10, 1 mM PMSF, pH 7.5) and lysed using high-pressure homogenizer. The lysate was cleared by centrifugation for 30 minutes (12000 rpm at 4° C.). The supernatant containing GST-SOS1 fragment was purified sequentially through Glutathione column and gel filtration (Hiload 16/600 Superdex […] column, Cytiva). The purified GST-SOS1 fragment was confirmed by SDS-PAGE and stored in 25 mM Tris-HCl, 100 mM NaCl, 1 mM DTT, 2.3% sucrose, 0.3% dextran-10, pH 7.5 at −80° C.
Kras-G12D Protein Purification. The sequence corresponding to human KRAS-G12D (residues 1-169, UniProt P01116-2; SEQ ID NO: 1) was synthesized and fused in frame with His-AVI-TEV vector. The plasmid was transformed into the E. coli strain BL21 (containing a plasmid that can generate BirA enzyme). Bacteria were growing at 37° C. in TB media containing 100 μg/ml ampicillin and 50 μg/ml Kanamycin to give OD600 of 0.6-0.8. The 0.5 mM IPTG and 50 mg/l biotin were added to induce protein expression for 16 hours at 25° C. Bacteria were harvested by centrifugation and stored at −80° C. Bacteria pellets were re-suspended in lysis buffer (20 mM Tris-HCl, 500 mM NaCl, 5 mM MgCl2, 2 mM […], 5% glycerol, pH 8.0) and lysed using high-pressure homogenizer. The lysate was cleared by centrifugation for 30 minutes (12000 rpm at 4° C.). The supernatant containing HIS-AVI-TEV-KRAS-G12D fragment was purified sequentially through Ni-NTA column (SMART), Streptactin column (SMART), and gel filtration (Hiload 16/600 Superdex 75 pg, GE). The purified HIS-AVI-TEV-KRAS-G12D fragment was confirmed by SDS-PAGE and stored in 50 mM HEPES-NaOH, 100 mM NaCl, 1 mM DTT, 5 mM MgCl2, pH 7.5 at −80° C.
Protein-Protein Interaction Assay. An assay buffer containing 50 mM HEPES, pH 7.5, 50 mM NaCl, 0.01% Brij-35, 1 mM TCEP, 0.1% BSA was prepared, and concentration series of test compounds were generated spanning from 0.5 nM to 10 μM over 10 3-fold serial dilutions in a 384-well assay plate at a volume of 20 pL. The purified GST-SOS1 catalytic domain (residues 564-1049) was first diluted in assay buffer and 5 μl of SOS1 (final concentration 2.5 nM in assay mixture) was directly dispensed into compound plates. After a spin down at 1000 RPM for 30 seconds, the SOS1/compound mixture was incubated at 25° C. for 15 minutes to allow the reaction between SOS1 and the compound. A KRAS-G12D mixture was prepared by incubation of avi-tagged Kras-G12D (residue 1-169) and GDP in assay buffer containing 10 mM MgCl2 at room temperature for 10 minutes. A KRAS-G12D and GDP mixture (5 μL) was added to the assay plate (final KRAS-G12D was 100 nM and GDP was 10 uM). The plate was centrifuged at 1000 rpm for 30 sec and incubated at 25° C. for 60 minutes. […]

IC50, < 100 nM:
C#C[C@@H](Nc1nc(C)nc2cc(=O)n(C3(C(F)F)CC3)cc12)c1cccc(C(C)(F)F)c1F [Compound 25, (R)-4-((1-(3-(1,1-difluoroethyl)-2-fluorophenyl)prop-2-yn-1-yl)amino)-6-(1-(difluoromethyl)cyclopropyl)-2-methylpyrido[4,3-d]pyrimidin-7(6H)-one]
C#C[C@@H](Nc1nc(C)nc2cc(=O)n(C3(C#C)CC3)cc12)c1cccc(C(F)F)c1F [Compound 26, (R)-4-((1-(3-(difluoromethyl)-2-fluorophenyl)prop-2-yn-1-yl)amino)-6-(1-ethynlcyclopropyl)-2-methylpyrido [4,3-d]pyrimidin-7(6H)-one]
C#C[C@@H](Nc1nc(C)nc2c(F)c(=O)n(C3(C(F)F)CC3)cc12)c1cccc(C(F)F)c1F [Compound 27, (R)-4-((1-(3-(difluoromethyl)-2-fluorophenyl)prop-2-yn-1-yl)amino)-6-(1-(difluoromethyl)cyclopropyl)-8-fluoro-2-methylpyrido[4,3-d]pyrimidin-7(6H)-one]
C#C[C@@H](Nc1nc(C)nc2c(C)c(=O)n(C3(C)CC3)cc12)c1cccc(C(F)(F)F)c1C [Compound 28, (R)-2,8-dimethyl-4-((1-(2-methyl-3-(trifluoromethyl)phenyl)prop-2-yn-1-yl)amino)-6-(1-methylcyclopropyl)pyrido[4,3-d]pyrimidin-7(6H)-one]
C#C[C@@H](Nc1nc(C)nc2cc(=O)n(C3CC(F)(F)C3)cc12)c1cccc(C(F)F)c1F [Compound 29, (R)-6-(3,3-difluorocyclobutyl)-4-((1-(3-(difluoromethyl)-2-fluorophenyl)prop-2-yn-1-yl)amino)-2-methylpyrido[4,3-d]pyrimidin-7(6H)-one]
C#C[C@@H](Nc1nc(C)nc2cc(=O)n(C3(CF)CC3)cc12)c1cccc(C(F)F)c1F [Compound 32, (R)-4-((1-(3-(difluoromethyl)-2-fluorophenyl)prop-2-yn-1-yl)amino)-6-(1-(fluoromethyl)cyclopropyl)-2-methylpyrido[4,3-d]pyrimidin-7(6H)-one]
C#C[C@@H](Nc1nc(C)nc2cc(=O)n(C3(C4CCOC4)CC3)cc12)c1cccc(C(F)(F)F)c1C (stereo partly drawn) [Compound 34, 2-methyl-4-(((R)-1-(2-methyl-3-(trifluoromethyl)phenyl)prop-2-yn-1-yl)amino)-6-(1-(tetrahydrofuran-3-yl)cyclopropyl)pyrido[4,3-d]pyrimidin-7(6H)-one]
C#C[C@@H](Nc1nc(C)nc2cc(=O)n(C3CC4(CNC4)C3)cc12)c1cccc(C(F)F)c1C [Compound 37, (R)-4-((1-(3-(difluoromethyl)-2-methylphenyl)prop-2-yn-1-yl)amino)-2-methyl-6-(2-azaspiro[3.3]heptan-6-yl)pyrido[4,3-d]pyrimidin-7(6H)-one]
C#C[C@@H](Nc1nc(C)nc2cc(=O)n(C3CC4(C3)CN(C)C4)cc12)c1cccc(C(F)F)c1C [Compound 38, (R)-4-((1-(3-(difluoromethyl)-2-methylphenyl)prop-2-yn-1-yl)amino)-2-methyl-6-(2-methyl-2-azaspiro[3.3]heptan-6-yl)pyrido[4,3-d]pyrimidin-7(6H)-one]
C#C[C@@H](Nc1nc(C)nc2c(Br)c(=O)n(C3(C(F)F)CC3)cc12)c1cccc(C(F)F)c1C [Compound 39, (R)-8-bromo-4-((1-(3-(difluoromethyl)-2-methylphenyl)prop-2-yn-1-yl)amino)-6-(1-(difluoromethyl)cyclopropyl)-2-methylpyrido[4,3-d]pyrimidin-7(6H)-one]
C#C[C@@H](Nc1ncnc2cc(=O)n(C3(C(F)F)CC3)cc12)c1cccc(C(F)F)c1C [Compound 40, (R)-4-((1-(3-(difluoromethyl)-2-methylphenyl)prop-2-yn-1-yl)amino)-6-(1-(difluoromethyl)cyclopropyl)pyrido[4,3-d]pyrimidin-7(6H)-one]
